Values joined by “and” are separate entries in the source; they are usually repeats but may differ in a detail not shown here. Equal entries are not always repeated.
Legend:
[1] = molecular target: T1, double mutant EGFR^L858R/T790M (Homo sapiens, UniProt P00533, L858R/T790M); test: In vitro EGFR inhibition assay, double mutant; assay type: biochemical; conditions: for IC50: double mutant EGFR; for Selectivity (SI): ratio of the IC50 values EGFR^WT/EGFR^L858R/T790M
T1 construct: purchased AssayQuant Technologies, Inc. (Marlboro, MA, USA)

[2] = tested on: LPS-induced IL-6 production in RAW 264.7 cells; test: IL-6 production in LPS-activated RAW 264.7 cells (ELISA); assay type: cell-based; conditions: LPS-activated RAW 264.7 cells treated with 25 µM of the compound
[3] = tested on: LPS-induced TNF-α production in RAW 264.7 cells; test: TNF-α production in LPS-activated RAW 264.7 cells (ELISA); assay type: cell-based; conditions: for TNF-α concentration: LPS-activated RAW 264.7 cells treated with 25 µM of the compound
HL-60(TB) = test: NCI single dose screen, HL-60(TB); assay type: cell-based; conditions: Homo sapiens, leukaemia, single dose 10^−5 M, read-out: growth inhibition percentage
Procedure: (§1) Screening of the anticancer activity of the newly synthesised compounds (6a, 6c, 6d, 6e, 6j, 6l, 6m, 6n, 6o, and 6p) was performed by the US National Cancer Institute (NCI) using 60 different human tumour cell lines in accordance with standard procedures formerly reported.
(§2) In vitro anticancer screening was carried out for the selected compounds at a single dose (10^−5 M) against 60 different human tumour cell lines of nine different cancer cell types: leukaemia, lung, colon, CNS, melanoma, ovarian, renal, prostate, and breast cancers.

MOLT-4 = test: NCI single dose screen, MOLT-4; assay type: cell-based; conditions: Homo sapiens; MOLT-4, leukaemia; single dose 10^−5 M; read-out: growth inhibition percentage
Procedure: as §1, §2

RPMI-8226 = test: NCI single dose screen, RPMI-8226; assay type: cell-based; conditions: Homo sapiens; RPMI-8226, leukaemia; single dose 10^−5 M; read-out: growth inhibition percentage
Procedure: as §1, §2

A549/ATCC = test: NCI single dose screen, A549/ATCC; assay type: cell-based; conditions: Homo sapiens, non-small cell lung cancer, single dose 10^−5 M, read-out: growth inhibition percentage
Procedure: as §1, §2

HOP-62 = test: NCI single dose screen, HOP-62; assay type: cell-based; conditions: Homo sapiens; HOP-62, non-small cell lung cancer; single dose 10^−5 M; read-out: growth inhibition percentage
Procedure: as §1, §2

COLO 205 = test: NCI single dose screen, COLO 205; assay type: cell-based; conditions: Homo sapiens; COLO 205, colon cancer; single dose 10^−5 M; read-out: growth inhibition percentage
Procedure: as §1, §2

HCC-2998 = test: NCI single dose screen, HCC-2998; assay type: cell-based; conditions: Homo sapiens; HCC-2998, colon cancer; single dose 10^−5 M; read-out: growth inhibition percentage
Procedure: as §1, §2

HCT-116 = test: NCI single dose screen, HCT-116; assay type: cell-based; conditions: Homo sapiens; HCT-116, colon cancer; single dose 10^−5 M; read-out: growth inhibition percentage
Procedure: as §1, §2

SF-268 = test: NCI single dose screen, SF-268; assay type: cell-based; conditions: Homo sapiens; SF-268, CNS cancer; single dose 10^−5 M; read-out: growth inhibition percentage
Procedure: as §1, §2

SF-295 = test: NCI single dose screen, SF-295; assay type: cell-based; conditions: Homo sapiens; SF-295, CNS cancer; single dose 10^−5 M; read-out: growth inhibition percentage
Procedure: as §1, §2

SNB-19 = test: NCI single dose screen, SNB-19; assay type: cell-based; conditions: Homo sapiens; SNB-19, CNS cancer; single dose 10^−5 M; read-out: growth inhibition percentage
Procedure: as §1, §2

U251 = test: NCI single dose screen, U251; assay type: cell-based; conditions: Homo sapiens, U-251; U251, CNS cancer; single dose 10^−5 M; read-out: growth inhibition percentage
Procedure: as §1, §2

LOX IMVI = test: NCI single dose screen, LOX IMVI; assay type: cell-based; conditions: Homo sapiens, melanoma, single dose 10^−5 M, read-out: growth inhibition percentage
Procedure: as §1, §2

MALME-3M = test: NCI single dose screen, MALME-3M; assay type: cell-based; conditions: Homo sapiens, melanoma, single dose 10^−5 M, read-out: growth inhibition percentage
Procedure: as §1, §2

M14 = test: NCI single dose screen, M14; assay type: cell-based; conditions: Homo sapiens; M14, melanoma; single dose 10^−5 M; read-out: growth inhibition percentage
Procedure: as §1, §2

MDA-MB-435 = test: NCI single dose screen, MDA-MB-435; assay type: cell-based; conditions: Homo sapiens; MDA-MB-435, melanoma; single dose 10^−5 M; read-out: growth inhibition percentage
Procedure: as §1, §2

SK-MEL-28 = test: NCI single dose screen, SK-MEL-28; assay type: cell-based; conditions: Homo sapiens; SK-MEL-28, melanoma; single dose 10^−5 M; read-out: growth inhibition percentage
Procedure: as §1, §2

SK-MEL-5 = test: NCI single dose screen, SK-MEL-5; assay type: cell-based; conditions: Homo sapiens; SK-MEL-5, melanoma; single dose 10^−5 M; read-out: growth inhibition percentage
Procedure: as §1, §2

IGROV1 = test: NCI single dose screen, IGROV1; assay type: cell-based; conditions: Homo sapiens, IGROV-1; IGROV1, ovarian cancer; single dose 10^−5 M; read-out: growth inhibition percentage
Procedure: as §1, §2

OVCAR-3 = test: NCI single dose screen, OVCAR-3; assay type: cell-based; conditions: Homo sapiens; OVCAR-3, ovarian cancer; single dose 10^−5 M; read-out: growth inhibition percentage
Procedure: as §1, §2

OVCAR-5 = test: NCI single dose screen, OVCAR-5; assay type: cell-based; conditions: Homo sapiens; OVCAR-5, ovarian cancer; single dose 10^−5 M; read-out: growth inhibition percentage
Procedure: as §1, §2

OVCAR-8 = test: NCI single dose screen, OVCAR-8; assay type: cell-based; conditions: Homo sapiens; OVCAR-8, ovarian cancer; single dose 10^−5 M; read-out: growth inhibition percentage
Procedure: as §1, §2

786-0 = test: NCI single dose screen, 786-0; assay type: cell-based; conditions: Homo sapiens; 786-0, renal cancer; single dose 10^−5 M; read-out: growth inhibition percentage
Procedure: as §1, §2

SN12C = test: NCI single dose screen, SN12C; assay type: cell-based; conditions: Homo sapiens, renal cancer, single dose 10^−5 M, read-out: growth inhibition percentage
Procedure: as §1, §2

UO-31 = test: NCI single dose screen, UO-31; assay type: cell-based; conditions: Homo sapiens; UO-31, renal cancer; single dose 10^−5 M; read-out: growth inhibition percentage
Procedure: as §1, §2

MCF7 = test: NCI single dose screen, MCF7; assay type: cell-based; conditions: Homo sapiens; MCF7, breast cancer; single dose 10^−5 M; read-out: growth inhibition percentage
Procedure: as §1, §2

MDA-MB-231/ATCC = test: NCI single dose screen, MDA-MB-231/ATCC; assay type: cell-based; conditions: Homo sapiens, breast cancer, single dose 10^−5 M, read-out: growth inhibition percentage
Procedure: as §1, §2

HS 578T = test: NCI single dose screen, HS 578T; assay type: cell-based; conditions: Homo sapiens, breast cancer, single dose 10^−5 M, read-out: growth inhibition percentage
Procedure: as §1, §2

T-47D = test: NCI single dose screen, T-47D; assay type: cell-based; conditions: Homo sapiens, T47D, breast cancer, single dose 10^−5 M, read-out: growth inhibition percentage
Procedure: as §1, §2

[4] = 25 µM, LPS-activated RAW 264.7 cells

T1 sequence (P00533 25-1210 T790M/L858R): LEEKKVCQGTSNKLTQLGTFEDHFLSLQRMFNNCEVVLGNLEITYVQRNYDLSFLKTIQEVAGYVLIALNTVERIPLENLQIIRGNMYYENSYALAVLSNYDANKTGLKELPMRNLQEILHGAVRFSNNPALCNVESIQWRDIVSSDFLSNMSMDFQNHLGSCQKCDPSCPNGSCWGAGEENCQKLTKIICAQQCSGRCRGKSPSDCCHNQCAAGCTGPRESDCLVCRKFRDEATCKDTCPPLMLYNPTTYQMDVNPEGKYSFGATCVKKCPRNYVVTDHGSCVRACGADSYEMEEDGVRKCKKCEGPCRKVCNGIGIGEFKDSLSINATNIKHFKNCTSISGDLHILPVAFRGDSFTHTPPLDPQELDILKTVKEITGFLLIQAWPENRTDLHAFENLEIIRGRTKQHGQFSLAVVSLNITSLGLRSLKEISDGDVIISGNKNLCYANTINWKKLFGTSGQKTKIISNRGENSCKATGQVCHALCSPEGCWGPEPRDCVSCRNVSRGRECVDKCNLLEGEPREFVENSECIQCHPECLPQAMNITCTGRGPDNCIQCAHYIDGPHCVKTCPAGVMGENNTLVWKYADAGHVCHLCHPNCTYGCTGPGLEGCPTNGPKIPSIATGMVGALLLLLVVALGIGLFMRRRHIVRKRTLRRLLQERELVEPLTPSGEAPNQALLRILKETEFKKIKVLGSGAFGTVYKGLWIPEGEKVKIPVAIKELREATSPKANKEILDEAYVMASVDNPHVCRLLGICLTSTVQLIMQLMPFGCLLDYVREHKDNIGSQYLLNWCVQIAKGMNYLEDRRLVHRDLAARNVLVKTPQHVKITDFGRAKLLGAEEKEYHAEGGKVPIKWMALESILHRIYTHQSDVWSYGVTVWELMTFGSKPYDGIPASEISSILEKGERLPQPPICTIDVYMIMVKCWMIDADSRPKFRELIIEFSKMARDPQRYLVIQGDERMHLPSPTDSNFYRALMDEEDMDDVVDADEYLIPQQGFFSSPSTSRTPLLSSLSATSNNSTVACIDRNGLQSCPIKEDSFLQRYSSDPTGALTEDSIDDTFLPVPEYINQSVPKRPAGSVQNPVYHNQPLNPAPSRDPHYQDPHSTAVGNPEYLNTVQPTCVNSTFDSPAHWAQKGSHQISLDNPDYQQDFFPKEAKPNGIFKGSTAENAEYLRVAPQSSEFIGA

Compound | IC50 [1] [µM] | Selectivity (SI) [1] | IL-6 concentration [2] | TNF-α concentration [3] | inhibition at 10 µM (HL-60(TB)) [%] | inhibition at 10 µM (MOLT-4) [%] | inhibition at 10 µM (RPMI-8226) [%] | inhibition at 10 µM (A549/ATCC) [%] | inhibition at 10 µM (HOP-62) [%] | inhibition at 10 µM (COLO 205) [%] | inhibition at 10 µM (HCC-2998) [%] | inhibition at 10 µM (HCT-116) [%] | inhibition at 10 µM (SF-268) [%] | inhibition at 10 µM (SF-295) [%] | inhibition at 10 µM (SNB-19) [%] | inhibition at 10 µM (U251) [%] | inhibition at 10 µM (LOX IMVI) [%] | inhibition at 10 µM (MALME-3M) [%] | inhibition at 10 µM (M14) [%] | inhibition at 10 µM (MDA-MB-435) [%] | further results
CN1c2ccccc2C(=O)N(NC(=O)Nc2ccc(F)cc2)C1c1ccc([N+](=O)[O-])cc1 (centres unmarked) [Compound 6o, 1-(4-Fluorophenyl)-3–(1-methyl-2-(4-nitrophenyl)-4-oxo-1,4-dihydroquinazolin-3(2H)-yl)urea] | 36 ± 2.58 | 1.5 | 37.23 pg/mL and 37.23 ± 1.19 pg/mL | 39.37 pg/mL and 39.37 ± 1.21 pg/mL | < 10 | 20.4 | 22.4 | < 10 | < 10 | < 10 | < 10 | 21.6 | < 10 | < 10 | 11.4 | < 10 | 29.5 | 14.1 | 18 | 19.9 | TNF-α level, times lower than celecoxib [3, 4]: ~10 times; TNF-α level, times lower than diclofenac [3, 4]: ~17 times; inhibition at 10 µM (SK-MEL-28): < 10%; inhibition at 10 µM (SK-MEL-5): 13.7%; inhibition at 10 µM (IGROV1): < 10%; inhibition at 10 µM (OVCAR-3): 22.7%; inhibition at 10 µM (OVCAR-5): < 10%; inhibition at 10 µM (OVCAR-8): < 10%; inhibition at 10 µM (786-0): < 10%; inhibition at 10 µM (SN12C): < 10%; inhibition at 10 µM (UO-31): 41.3%; inhibition at 10 µM (MCF7): 17.9%; inhibition at 10 µM (MDA-MB-231/ATCC): 22.5%; inhibition at 10 µM (HS 578T): < 10%; inhibition at 10 µM (T-47D): < 10%
COc1ccc(C2N(NC(=O)Nc3ccc(F)cc3)C(=O)c3ccccc3N2C)cc1 (centres unmarked) [Compound 6p, 1-(4-Fluorophenyl)-3-(2–(4-methoxyphenyl)-1-methyl-4-oxo-1,4-dihydroquinazolin-3(2H)-yl)urea] | 5.41 ± 3.21 | >18.5 | 237.2 ± 3.19 pg/mL | 1549.00 ± 20.25 pg/mL | < 10 | 11.2 | 11.2 | < 10 | < 10 | < 10 | < 10 | 14 | < 10 | < 10 | < 10 | < 10 | 18.1 | < 10 | 11.8 | 10.7 | inhibition at 10 µM (SK-MEL-28): < 10%; inhibition at 10 µM (SK-MEL-5): < 10%; inhibition at 10 µM (IGROV1): < 10%; inhibition at 10 µM (OVCAR-3): 17.1%; inhibition at 10 µM (OVCAR-5): < 10%; inhibition at 10 µM (OVCAR-8): < 10%; inhibition at 10 µM (786-0): < 10%; inhibition at 10 µM (SN12C): < 10%; inhibition at 10 µM (UO-31): 42.6%; inhibition at 10 µM (MCF7): 14.7%; inhibition at 10 µM (MDA-MB-231/ATCC): 12.6%; inhibition at 10 µM (HS 578T): < 10%; inhibition at 10 µM (T-47D): < 10%
CN1c2ccccc2C(=O)N(NC(=O)Nc2ccccc2)C1c1ccc([N+](=O)[O-])cc1 (centres unmarked) [Compound 6e, 1-(1-Methyl-2-(4-nitrophenyl)-4-oxo-1,4-dihydroquinazolin-3(2H)-yl)-3-phenylurea] | 5.48 ± 1.33 | 8.9 | 198.8 ± 6.08 pg/mL | 1929.00 ± 53.88 pg/mL | < 10 | < 10 | < 10 | < 10 | < 10 | < 10 | < 10 | 53.1 | < 10 | < 10 | < 10 | < 10 | < 10 | < 10 | 67.2 | < 10 | inhibition at 10 µM (SK-MEL-28): < 10%; inhibition at 10 µM (SK-MEL-5): < 10%; inhibition at 10 µM (IGROV1): < 10%; inhibition at 10 µM (OVCAR-3): < 10%; inhibition at 10 µM (OVCAR-5): < 10%; inhibition at 10 µM (OVCAR-8): < 10%; inhibition at 10 µM (786-0): 39.9%; inhibition at 10 µM (SN12C): < 10%; inhibition at 10 µM (UO-31): 14.4%; inhibition at 10 µM (MCF7): < 10%; inhibition at 10 µM (MDA-MB-231/ATCC): < 10%; inhibition at 10 µM (HS 578T): < 10%; inhibition at 10 µM (T-47D): < 10%
CN1c2ccccc2C(=O)N(NC(=O)Nc2ccc(F)cc2)C1c1ccc(F)cc1 (centres unmarked) [Compound 6n, 1-(4-Fluorophenyl)-3-(2–(4-fluorophenyl)-1-methyl-4-oxo-1,4-dihydroquinazolin-3(2H)-yl)urea] | 13.5 ± 2.22 | >7.4 | 535.3 ± 15.25 pg/mL | 1981.00 ± 209.9 pg/mL | < 10 | 43.1 | 33.1 | < 10 | 13.3 | < 10 | < 10 | 22.9 | 21.7 | < 10 | < 10 | < 10 | 31.6 | 17.6 | 23.2 | 25.8 | inhibition at 10 µM (SK-MEL-28): < 10%; inhibition at 10 µM (SK-MEL-5): 20.3%; inhibition at 10 µM (IGROV1): < 10%; inhibition at 10 µM (OVCAR-3): 41.9%; inhibition at 10 µM (OVCAR-5): < 10%; inhibition at 10 µM (OVCAR-8): < 10%; inhibition at 10 µM (786-0): < 10%; inhibition at 10 µM (SN12C): < 10%; inhibition at 10 µM (UO-31): 57.1%; inhibition at 10 µM (MCF7): 29.9%; inhibition at 10 µM (MDA-MB-231/ATCC): 29.8%; inhibition at 10 µM (HS 578T): 19.7%; inhibition at 10 µM (T-47D): 11.7%
